pIC50: −log10 of the molar value.
What was measured:
[1] = tested on: leukemia tumour line L 1210; test: In vitro cytotoxic activity on leukemia tumour line L 1210; format: cell-based; conditions: L 1210, 48 hours contact, 37° C.; read-out: I D 50 (concentration which inhibits the proliferation of the cells by 50%)
Method in brief: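 Exponentially growing L 1210 leukemia cells were exposed to increasing compound concentrations at 37 °C under CO2 and counted every 24 h. ID50, the concentration inhibiting proliferation by 50%, was calculated after 48 h contact.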

leukemia P 388 [2] = test: Test of leukemia P 388; IP/IP, D1-5; format: in vivo, CDF1 hybrid mice; conditions: D1-D5; for Number of survivors: day D30; for T/C %: survival time
Method in brief: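 CDF1 hybrid mice received 10^6 P 388 cells intraperitoneally, then compound in distilled water by intraperitoneal route daily D1-D5, 10 mice per group, 5-fluorouracil as positive control. Activity judged as T/C survival time versus untreated controls, survivors counted at D30; T/C ≤85% or day 5 minus day 1 weight change ≤ −4 g counted as toxic.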

leukemia P388 = test: Test for leukemia P388, IP/IP, D1; format: in vivo, CDF1 hybrid mice; conditions: for Number of survivors: day D30; for T/C %: survival time
Protocol: (§1) The antitumour activity was tested in vivo on various tumours inoculated in various ways according to the following general protocol:
(§2) All the male or female mice are inoculated on day D0 with a known quantity of viable tumour cells for ascitic tumours or with a known tumour fragment for solid tumours.
(§3) They are then distributed into various groups. Each group, corresponding to the animals treated by the product under test, is made up of 10 mice. The product under test is dissolved in distilled water and it is administered n times (Dx-Dy), n, y, and x varying according to the protocol chosen, at the rate of 0.1 ml of solution per 10 g by weight of mice treated and at specific doses for each protocol.
(§4) The "negative control" group, corresponding to the animals which are not treated by the product, contains 2√N animals, N being equal to or greater than the total number of mice treated by the product in the same experiment.
(§5) Finally, the tests can also be carried out at the same time as the study of a group called "positive control", of ten animals, which is treated by a molecule, known for its antitumour activity and which can vary according to the protocol chosen, in the same conditions as the groups treated by the product under test.
(§6) The antitumour activity is evaluated, in the case of ascitic tumours, by considering the increase in the survival time of the animals treated in comparison to that of the animals in the "negative control" group, according to the formula: [formula]
(§7) Also, a product is considered as toxic at the dose studied when this T/C value is equal to or less than 85%. In addition, a product is also considered as toxic at the dose studied when the weight variation, expressed in grams and calculated by the formula: […]
(§8) The tests are carried out with CDF1 hybrid mice inoculated by intraperitoneal route with 10^6 leukemia cells from the P 388 line. The compound under test is administered for 5 successive days (D1-D5) by intraperitoneal route. The positive control for the test is 5-fluorouracile which is administered in the same conditions. The number of surviving animals is evaluated on day D30.
(b) Test for Leukemia P388, IP/IP, D1 (GERAN et al. Cancer chemother., 1972, 2, 07-57).
The test is carried out according to the preceding protocol, the compound under test being administered only on day D1.

leukemia P 388 [3] = test: Test for leukemia P 388 IP/D1 IV; format: in vivo, CDF1 hybrid mice; conditions: for Number of survivors: day D30; for T/C %: survival time
Protocol: as §1, §2, §3, §4, §5, §6, §7, §8
(f) Test for leukemia P 388 IP/D1 IV (GERAN et al., Cancer Chemother., 1972, 2, 07-57).
The test is carried out according to the same protocol as that described for test (a), the compound under test being administered by intravenous route only on day D1.

colic adenocarcinoma 38 [4] = test: Test for colic adenocarcinoma 38, SC/D1 IV; format: in vivo, BDF1 hybrid mice; conditions: 100 mg/kg IV
Protocol: as §1, §2, §3, §4
(§9) the antitumour activity is evaluated, in the case of solid tumours, by considering the reduction in the average tumour volume of the treated animals in comparison with the animals of the "negative control" group, according to the formula: [formula]
(§10) A value for T/C of less than 42% indicates an activity for the product at the studied dose.
(h) Test for colic adenocarcinoma 38, SC/D1 IV. (GERAN et al., Cancer Chemother., 1972, 2, 07-57).
(§11) The tests are carried out with BDF1 hybrid mice inoculated by subcutaneous route with a standardized tumour fragment of 3 mm^3. The compound under test is administered by intravenous route only on day D1.
The number of surviving animals is evaluated on day D38.

colic adenocarcinoma 38 [5] = test: Test for colic adenocarcinoma 38, SC/D2,9 IV; format: in vivo, BDF1 hybrid mice; design: Average tumour volume at D32: unit not given beside the values; conditions: D2 and D9; for Number of survivors: day D32; for T/C % at D32: tumour volume
Protocol: as §1, §2, §3, §4, §9, §10, §11
(i) Test for colic adenocarcinoma 38, SC/D2,9 IV (GERAN et al., Cancer Chemother., 1972, 2, 07-57).
This test is carried out according to the protocol described for test (h), the compound under test being administered by intravenous route on day D2 then on day D9.
The number of surviving animals is evaluated on day D32.

## CCN(CC)CCCNc1ncc(C)c2c1c1cc(O)ccc1n2C [Derivative No. 12, 1-(3-diethylaminopropylamino)-4,5-dimethyl-8-hydroxy-5H-pyrido[4,3-b]indole]
[1]
  pIC50: 7.46
Leukemia P 388 [2]; 1.25 mg/kg IP
  Median day of survival: 16.7 days
  Variation by weight: -0.5 g
  Number of survivors: 1/10
  T/C %: 152%
Leukemia P 388 [2]; 2.5 mg/kg IP
  Median day of survival: 18.0 days
  Variation by weight: -1.2 g
  Number of survivors: 0/10
  T/C %: 164%
Leukemia P 388 [2]; 5 mg/kg IP
  Median day of survival: 19.00 days
  Variation by weight: -1.9 g
  Number of survivors: 2/10
  T/C %: 173%
Leukemia P 388 [2]; 10 mg/kg IP
  Median day of survival: 19.3 days
  Number of survivors: 0/10
  T/C %: 176%
Leukemia P 388 [2]; 20 mg/kg IP
  Median day of survival: 9.7 days
  Variation by weight: -5.9 g
  Number of survivors: 0/10
  T/C %: 88%
Leukemia P388; 5 mg/kg IP
  Median day of survival: 15.87 days
  Variation by weight (g): +0.1 g
  Number of survivors: 0/10
  T/C %: 139%
Leukemia P388; 10 mg/kg IP
  Median day of survival: 17.75 days
  Variation by weight: -0.6 g
  Number of survivors: 0/10
  T/C %: 156%
Leukemia P388; 20 mg/kg IP
  Median day of survival: 20.75 days
  Variation by weight: -1.2 g
  Number of survivors: 0/10
  T/C %: 182%
Leukemia P388; 40 mg/kg IP
  Median day of survival: 23.0 days
  Variation by weight: -6.2 g
  Number of survivors: 1/10
  T/C %: 202%
Leukemia P 388 [3]; 50 mg/kg IV
  Median day of survival: 19.0 days
  Variation by weight: -0.7 g
  Number of survivors: 0/10
  T/C %: 174%
Leukemia P 388 [3]; 100 mg/kg IV
  Median day of survival: 24.3 days
  Variation by weight: -1.6 g
  Number of survivors: 1/10
  T/C %: 223%
Colic adenocarcinoma 38 [4]
  Average tumour volume at D38: 3.24
Colic adenocarcinoma 38 [4]; day D38
  Number of survivors: 10/10
Colic adenocarcinoma 38 [4]; tumour volume
  T/C % at D38: 36%
Colic adenocarcinoma 38 [5]; 50 mg/kg IV
  Average tumour volume at D32: 1.38
  Number of survivors: 10/10
  T/C % at D32: 18%
Colic adenocarcinoma 38 [5]; 75 mg/kg IV
  Average tumour volume at D32: 0.97
  Number of survivors: 10/10
  T/C % at D32: 13%
